The results in this text go back to ChEMBL document CHEMBL1201862, “PubChem BioAssay data set” (2004).

Some test systems named below: Malme-3M; HCT-116; NCI-H226; MOLT-4; A549; IGROV-1; SNB-75; NCI/ADR-RES; CAKI-1; LOX IMVI; HOP-92; RXF 393; BT-549; HCT-15; CCRF-CEM; SK-OV-3; MDA-N; MDA-MB-435; U-251; 786-0.
Holding throughout (assay): NCI-60 cell line screen, 48 h

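Exposure lasted 48 hours, with cells grown in 96-well plates and compounds tested at five concentrations. GI50 = concentration required for 50% inhibition of growth.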 Active and inactive are the calls of the source. Rule as the data show it: active = GI50 up to about 1.1 µM and inactive = higher.

Regarding `COc1cc(-c2[o+]c3cc(O)cc(O)c3cc2O)cc(O)c1O`, the GI50 with Malme-3M, in the test with HCT-116, with NCI-H226, in the test with MOLT-4, in the test with A549 and in the test on IGROV-1 was > 100 µM (inactive) throughout. Besides, the GI50 with SNB-75 was > 100 µM (inactive); in the test on NCI/ADR-RES, > 100 µM (inactive); in the test on CAKI-1, > 100 µM (inactive); in the test with LOX IMVI it was 55.8 µM (inactive); in the test on HOP-92 it was > 100 µM (inactive); with RXF 393, > 100 µM (inactive). The GI50 in the test with BT-549 is > 100 µM (inactive); with HCT-15, more than 100 µM; with CCRF-CEM it was 25.9 µM (inactive); in the test with SK-OV-3, > 100 µM (inactive); in the test with MDA-N, 34.8 µM (inactive); in the test on MDA-MB-435, 19.4 µM (inactive). In addition, the GI50 with U-251 and in the test with 786-0 was > 100 µM (inactive) each time.

As for `CO/N=C(\C)c1ccc(Nc2c3ccccc3nc3occc23)cc1`, the GI50 with Malme-3M was 0.313 µM (active); in the test on HCT-116, 0.374 µM (active); in the test with NCI-H226, 4.34 µM (inactive); with MOLT-4, 0.366 µM (active); in the test on A549, 0.643 µM (active); in the test on IGROV-1 it was 0.233 µM (active). The GI50 with SNB-75 is 0.41 µM (active); with NCI/ADR-RES it was 0.181 µM (active); in the test on CAKI-1, 0.318 µM (active); in the test with LOX IMVI it was 0.59 µM (active); in the test on HOP-92 it was 12.9 µM (inactive); in the test with RXF 393 it was 0.0813 µM (active). Besides, the GI50 was 0.845 µM (active) in the test on BT-549; 0.191 µM in the test with HCT-15; 0.47 µM (active) in the test on CCRF-CEM; 1.16 µM (inactive) in the test with SK-OV-3; 0.0855 µM (active) in the test with MDA-N; 0.0451 µM (active) with MDA-MB-435. Further, the GI50 was 0.522 µM (active) with U-251 and 0.74 µM (active) in the test with 786-0.

Take `COc1ccc(/C=C2\CCC(CN3CCOCC3)C2=O)cc1` (stereo not given): the GI50 with Malme-3M is 3.01 µM (inactive); in the test on HCT-116, 1.8 µM (inactive); in the test on NCI-H226, 18.9 µM (inactive); in the test with MOLT-4, 1.83 µM (inactive); with A549, 9.57 µM (inactive); with IGROV-1 it was 4 µM (inactive). The GI50 in the test with SNB-75 is 4.68 µM (inactive); with NCI/ADR-RES, 2.62 µM (inactive); in the test on CAKI-1, 1.99 µM (inactive); in the test with LOX IMVI, 4.65 µM (inactive); in the test with HOP-92 it was 2.52 µM (inactive); in the test on RXF 393 it was 0.942 µM (active). Also, the GI50 is 2.25 µM (inactive) in the test on BT-549; 2.39 µM in the test on HCT-15; 1.38 µM (inactive) in the test on CCRF-CEM; 16.4 µM (inactive) in the test with SK-OV-3; 2.79 µM (inactive) with MDA-N; 2.05 µM (inactive) in the test on MDA-MB-435. For the same compound, the GI50 is 17.3 µM (inactive) with U-251 and 1.65 µM (inactive) in the test on 786-0.

For `Cc1ccc(NC(=O)c2cccc(OP(=O)(Nc3ccc(C)cc3)Nc3ccc(C)cc3)c2)cc1`, the GI50 with Malme-3M was 4.83 µM (inactive); in the test on HCT-116 it was 4.18 µM (inactive); with NCI-H226, 8.04 µM (inactive); in the test with MOLT-4, 2.61 µM (inactive); in the test with A549, 3.46 µM (inactive); in the test on IGROV-1, 15.1 µM (inactive). Moreover, the GI50 was 4.14 µM (inactive) in the test on SNB-75; 12 µM (inactive) in the test with NCI/ADR-RES; 12.8 µM (inactive) in the test on CAKI-1; 10.9 µM (inactive) in the test with LOX IMVI; 3.23 µM (inactive) in the test with HOP-92; 1.91 µM (inactive) in the test with RXF 393. For the same compound, the GI50 in the test on BT-549 was 22.2 µM (inactive); in the test on HCT-15, 6.01 µM; with CCRF-CEM, 13.8 µM (inactive); in the test with SK-OV-3 it was 24.9 µM (inactive); with MDA-N it was 3.78 µM (inactive); with MDA-MB-435, 7.48 µM (inactive). For the same compound, the GI50 is 6.58 µM (inactive) in the test on U-251 and 19.9 µM (inactive) with 786-0.

Turning to `O=C1/C(=C/c2ccc(Cl)cc2)CSc2ccccc21`, the GI50 was 25.5 µM (inactive) in the test with Malme-3M; 2.6 µM (inactive) with HCT-116; 17.4 µM (inactive) in the test with NCI-H226; 5.55 µM (inactive) with MOLT-4; 45.5 µM (inactive) in the test with A549; 23.7 µM (inactive) in the test on IGROV-1. Moreover, the GI50 is 31.9 µM (inactive) in the test on SNB-75; 16.6 µM (inactive) in the test on NCI/ADR-RES; 19.4 µM (inactive) in the test on CAKI-1; 2.68 µM (inactive) in the test with LOX IMVI; 33.6 µM (inactive) in the test with HOP-92; 18.2 µM (inactive) with RXF 393. In addition, the GI50 is 27 µM (inactive) in the test on BT-549; 4.62 µM with HCT-15; 3.1 µM (inactive) in the test with CCRF-CEM; 31.8 µM (inactive) in the test on SK-OV-3; 5.78 µM (inactive) in the test on MDA-N; 4.86 µM (inactive) in the test on MDA-MB-435. Besides, the GI50 in the test on U-251 was 5.87 µM (inactive); in the test on 786-0, 17.5 µM (inactive).

Turning to `CCCCC(=O)OC[n+]1ccc(-c2c(COC(=O)NC(C)C)c(COC(=O)NC(C)C)c3n2CCC3)cc1`, the GI50 with Malme-3M is > 100 µM (inactive); with HCT-116 it was > 94.8 µM (inactive); in the test with NCI-H226, > 100 µM (inactive); in the test on MOLT-4, 19.5 µM (inactive); in the test on A549, > 100 µM (inactive); with IGROV-1, > 100 µM (inactive). For the same compound, the GI50 with SNB-75 was 60.3 µM (inactive); with NCI/ADR-RES, > 100 µM (inactive); with CAKI-1, 24.9 µM (inactive); with LOX IMVI, 47.9 µM (inactive); with HOP-92, > 84.1 µM (inactive); in the test with RXF 393, 64 µM (inactive). The GI50 in the test with BT-549 was > 100 µM (inactive); in the test with HCT-15, more than 100 µM; in the test with CCRF-CEM, 33.7 µM (inactive); in the test on SK-OV-3 it was > 100 µM (inactive); in the test on MDA-N it was > 100 µM (inactive); in the test with MDA-MB-435, > 100 µM (inactive). Also, the results for the GI50 in the test on U-251 and in the test with 786-0 were > 71.3 µM (inactive) and 39.4 µM (inactive), respectively.

As for `COC(OC)(c1ccccc1)C(I)I`, the GI50 with Malme-3M is 3.15 µM (inactive); with HCT-116 it was 4.91 µM (inactive); in the test with NCI-H226 it was 20.8 µM (inactive); in the test on MOLT-4 it was 2.38 µM (inactive); with A549, 18.5 µM (inactive); in the test on IGROV-1 it was 13.9 µM (inactive). Besides, the GI50 in the test with SNB-75 is 13.1 µM (inactive); with NCI/ADR-RES, 16.3 µM (inactive); in the test with CAKI-1 it was 11.8 µM (inactive); in the test on LOX IMVI, 13.4 µM (inactive); in the test on HOP-92 it was 13.4 µM (inactive); in the test on RXF 393, 2.32 µM (inactive). The GI50 with BT-549 was 11 µM (inactive); in the test on HCT-15, 6.61 µM; in the test with CCRF-CEM, 2.31 µM (inactive); in the test on SK-OV-3, 12.1 µM (inactive); in the test on MDA-N, 7.96 µM (inactive); with MDA-MB-435, 4.37 µM (inactive). Besides, the figures for the GI50 in the test with U-251 and in the test with 786-0 were 16.5 µM (inactive) and 8.36 µM (inactive), respectively.

Turning to `CCN(CC)CCCn1c(=O)c2cccnc2n2c3c(=O)n(C)c(=O)n(C)c3nc12`, the GI50 in the test on Malme-3M, with HCT-116, in the test with NCI-H226, in the test on MOLT-4, with A549 and in the test with IGROV-1 was > 100 µM (inactive) throughout. Moreover, the GI50 with SNB-75, in the test with NCI/ADR-RES, with CAKI-1, in the test with LOX IMVI, in the test on HOP-92 and in the test with RXF 393 was > 100 µM (inactive) throughout. The GI50 with BT-549 was > 100 µM (inactive); in the test with HCT-15 it was more than 100 µM; in the test on CCRF-CEM, > 100 µM (inactive); in the test with SK-OV-3, > 100 µM (inactive); in the test on MDA-N, > 100 µM (inactive); in the test on MDA-MB-435 it was > 100 µM (inactive). The GI50 in the test on U-251 and with 786-0 was > 100 µM (inactive) in each case.

Regarding `NC1=NC(NCC2(CO)CCC2)=CC(OCC2(CO)CCC2)N1` (stereo not given), the GI50 in the test with Malme-3M was > 100 µM (inactive); in the test on HCT-116 it was > 100 µM (inactive); in the test on NCI-H226 it was > 100 µM (inactive); in the test on MOLT-4, 65.9 µM (inactive); with A549 it was > 100 µM (inactive); in the test on IGROV-1, > 100 µM (inactive). In addition, the GI50 with SNB-75, with NCI/ADR-RES, in the test with CAKI-1, in the test on LOX IMVI, in the test with HOP-92 and in the test with RXF 393 was > 100 µM (inactive) each time. The GI50 with BT-549 was > 100 µM (inactive); with HCT-15, more than 100 µM; in the test on CCRF-CEM, > 100 µM (inactive); with SK-OV-3, > 100 µM (inactive); with MDA-N it was > 100 µM (inactive); in the test with MDA-MB-435, > 100 µM (inactive). Moreover, the GI50 with U-251 and in the test on 786-0 was > 100 µM (inactive) each time.

As for `Cc1cccc(CNNC(=O)c2cc[n+]([BH2-]C#N)cc2)c1`, the GI50 in the test with Malme-3M is 15 µM (inactive); with HCT-116, 23.3 µM (inactive); in the test on NCI-H226, 23.9 µM (inactive); in the test on MOLT-4, 28.2 µM (inactive); in the test on A549, 39.1 µM (inactive); in the test on IGROV-1, 22 µM (inactive). In addition, the GI50 was 21.7 µM (inactive) in the test with SNB-75; 24.7 µM (inactive) in the test on NCI/ADR-RES; 32.4 µM (inactive) in the test on CAKI-1; 20.1 µM (inactive) in the test on LOX IMVI; 4.47 µM (inactive) in the test on HOP-92; 22.4 µM (inactive) in the test on RXF 393. Also, the GI50 is 42.5 µM (inactive) with BT-549; 21.4 µM in the test on HCT-15; 23.9 µM (inactive) in the test on CCRF-CEM; 43.6 µM (inactive) in the test with SK-OV-3; 29.2 µM (inactive) with MDA-N; 28.3 µM (inactive) in the test with MDA-MB-435. For the same compound, the GI50 is 39.5 µM (inactive) in the test on U-251 and 30.7 µM (inactive) with 786-0.
